{"source": "paper PMC12394658", "about": "“Discovery of Zharp1-163 as a dual inhibitor of ferroptosis and necroptosis for the treatment of inflammatory disorders and kidney injury” (Cell Death Discovery, 2025)", "experiment_in_all_cases": "biochemical", "parameters_in_all_cases": "Kinase selectivity panel of 81 human kinases, ADP-Glo or HTRF, per cent inhibition at 1 uM", "key": {"Erk7": {"biological_target": "T1, Erk7 (Homo sapiens, UniProt Q8TD08)", "T1 construct": "gene MAPK15", "T1 sequence (Q8TD08 whole entry)": "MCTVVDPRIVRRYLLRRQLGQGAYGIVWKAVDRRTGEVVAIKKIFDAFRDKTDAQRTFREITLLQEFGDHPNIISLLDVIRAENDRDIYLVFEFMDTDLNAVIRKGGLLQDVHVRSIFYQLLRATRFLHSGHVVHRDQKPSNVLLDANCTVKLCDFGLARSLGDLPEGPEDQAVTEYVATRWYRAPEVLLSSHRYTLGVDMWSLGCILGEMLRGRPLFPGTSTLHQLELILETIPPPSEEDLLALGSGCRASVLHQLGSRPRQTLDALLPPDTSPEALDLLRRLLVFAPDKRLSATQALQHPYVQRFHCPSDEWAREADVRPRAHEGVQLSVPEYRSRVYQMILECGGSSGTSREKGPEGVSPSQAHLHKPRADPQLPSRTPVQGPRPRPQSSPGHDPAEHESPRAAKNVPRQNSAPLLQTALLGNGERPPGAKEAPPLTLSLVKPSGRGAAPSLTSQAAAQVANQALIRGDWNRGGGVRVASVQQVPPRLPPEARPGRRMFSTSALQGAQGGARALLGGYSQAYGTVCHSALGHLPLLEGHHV", "description": "(§1) We next sought to determine the binding affinity of Zharp1-163 for RIPK1 or RIPK3 via a binding assay (Fig. 4A). […] Further, we evaluated the selectivity of Zharp1-163 against a panel of 81 kinases (at 1000 nM). […] To elucidate the binding interactions between Zharp1-163 and RIPK1 kinase, we conducted molecular docking studies using the RIPK1 crystal structure (PDB ID: 4NEU). The predicted binding conformations and interaction patterns between Zharp1-163 and the RIPK1 kinase domain are presented in Fig. 4D, E. Like the cocrystallized ligand in the 4NEU crystal complex, Zharp1-163 was predicted to act as a typical type II kinase inhibitor, interacting with the DLG (Asp156-Leu157-Gly158)-out conformation of RIPK1 (Fig. 4D, E). The 2-aminoimidazo [1,2-a] pyridine moiety of Zharp1-163 formed hydrogen bonds with Met95 in the hinge region. Furthermore, the carboxylate group of Zharp1-163 established hydrogen bonds with Asp156 in the DLG-out region. Additionally, the saturated ring of Zharp1-163 was deeply embedded within the hydrophobic allosteric pocket formed by the residues Met66, Met67, Leu70, Val76, Leu129, and Leu159, which is created by the DLG-out conformation in RIPK1 (Fig. 4D, E).  Fig. 4 Zharp1-163 is a selective inhibitor of RIPK1 kinase activity. A Binding affinity curve of Zharp1-163 with RIPK1 and RIPK3. B In an in vitro kinase activity assay, recombinant RIPK1 was incubated with Zharp1-163, after which RIPK1 kinase activity was determined by measuring ATP levels via a luciferase reporter assay system. […] Kinases are marked with dots, where the color of each kinase indicates the level of inhibition achieved by Zharp1-163. D Predicted binding conformation of Zharp1-163. E Schematic representation of the interaction patterns between Zharp1-163 and the key residues in the binding pocket of the RIPK1 kinase. […] NIH3T3-RIPK3 cells were pretreated with the indicated concentrations of Zharp1-163 for 2 h and then treated with AP20187 (100 nM) for 24 h. Cell viability was determined by measuring ATP levels. […] HeLa-MLKL (1–190) cells were pretreated with the indicated concentrations of Zharp1-163 for 2 h and subsequently treated with AP20187 (100 nM) for 24 h. Cell viability was determined by measuring ATP levels. H Viability of IFNβ-primed MEFs at 18 h after stimulation with poly(I:C) plus z-VAD and treatment with Zharp1-163 (10 μM). I Effects of different concentrations of Zharp1-163 on WT or RIPK1 KO HT-29 cells. Cell viability was determined by measuring ATP levels. The data are presented as the mean ± SD of triplicate samples."}, "PEK": {"biological_target": "T2, PEK (Homo sapiens, UniProt Q9NZJ5)", "T2 construct": "gene EIF2AK3", "description": "as §1"}, "BMX": {"biological_target": "BMX (Homo sapiens, UniProt P51813)", "sequence (P51813 whole entry)": "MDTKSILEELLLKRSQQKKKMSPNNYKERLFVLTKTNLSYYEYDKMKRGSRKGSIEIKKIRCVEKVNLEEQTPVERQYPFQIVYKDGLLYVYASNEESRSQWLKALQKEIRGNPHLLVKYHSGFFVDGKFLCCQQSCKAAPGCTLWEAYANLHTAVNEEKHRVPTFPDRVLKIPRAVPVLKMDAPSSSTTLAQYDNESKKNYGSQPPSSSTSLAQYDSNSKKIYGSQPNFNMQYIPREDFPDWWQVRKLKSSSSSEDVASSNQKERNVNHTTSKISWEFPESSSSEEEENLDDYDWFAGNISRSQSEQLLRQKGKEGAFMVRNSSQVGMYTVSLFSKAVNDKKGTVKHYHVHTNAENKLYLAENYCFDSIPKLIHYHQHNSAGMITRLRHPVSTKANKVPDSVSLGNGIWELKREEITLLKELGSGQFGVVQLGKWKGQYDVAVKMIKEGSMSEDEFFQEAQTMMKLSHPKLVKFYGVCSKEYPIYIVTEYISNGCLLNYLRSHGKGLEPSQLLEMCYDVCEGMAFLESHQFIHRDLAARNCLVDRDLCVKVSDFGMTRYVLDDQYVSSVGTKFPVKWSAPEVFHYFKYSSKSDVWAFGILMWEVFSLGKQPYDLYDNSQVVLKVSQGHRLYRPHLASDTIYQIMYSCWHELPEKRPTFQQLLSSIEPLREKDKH", "description": "as §1"}, "CDK5/p35NCK": {"biological_target": "T3, CDK5/p35NCK (Homo sapiens, UniProt Q00535)", "T3 construct": "p35NCK", "description": "as §1"}, "SYK": {"biological_target": "SYK (Homo sapiens, UniProt P43405)", "description": "as §1"}, "RIPK2": {"biological_target": "RIPK2 (Homo sapiens, UniProt O43353)", "description": "as §1"}, "MARK4": {"biological_target": "MARK4 (Homo sapiens, UniProt Q96L34)", "description": "as §1"}, "AXL": {"biological_target": "AXL (Homo sapiens, UniProt P30530)", "sequence (P30530 whole entry)": "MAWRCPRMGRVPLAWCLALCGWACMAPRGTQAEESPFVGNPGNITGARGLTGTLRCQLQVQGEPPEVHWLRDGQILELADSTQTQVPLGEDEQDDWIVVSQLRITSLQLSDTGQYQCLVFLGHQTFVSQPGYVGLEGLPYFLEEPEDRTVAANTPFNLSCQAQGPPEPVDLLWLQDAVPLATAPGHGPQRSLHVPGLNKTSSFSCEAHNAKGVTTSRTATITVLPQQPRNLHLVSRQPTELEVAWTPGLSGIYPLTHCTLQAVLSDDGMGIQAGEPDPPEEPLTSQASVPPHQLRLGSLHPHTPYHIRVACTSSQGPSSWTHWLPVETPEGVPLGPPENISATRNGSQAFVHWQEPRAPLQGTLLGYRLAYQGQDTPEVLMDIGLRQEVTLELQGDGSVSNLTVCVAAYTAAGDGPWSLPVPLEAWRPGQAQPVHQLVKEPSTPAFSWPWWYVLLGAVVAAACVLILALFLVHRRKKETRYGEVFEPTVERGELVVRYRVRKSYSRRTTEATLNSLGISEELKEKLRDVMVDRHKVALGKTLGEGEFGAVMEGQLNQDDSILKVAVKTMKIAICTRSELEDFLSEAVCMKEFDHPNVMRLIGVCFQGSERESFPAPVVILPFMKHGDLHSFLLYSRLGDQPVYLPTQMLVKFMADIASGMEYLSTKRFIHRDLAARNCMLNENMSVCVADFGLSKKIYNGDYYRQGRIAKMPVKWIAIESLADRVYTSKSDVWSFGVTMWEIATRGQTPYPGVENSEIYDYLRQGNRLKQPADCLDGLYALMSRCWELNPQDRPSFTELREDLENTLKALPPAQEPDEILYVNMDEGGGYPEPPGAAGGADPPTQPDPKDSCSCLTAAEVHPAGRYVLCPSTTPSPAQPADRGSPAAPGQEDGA", "description": "as §1"}, "EPHA2": {"biological_target": "EPHA2 (Homo sapiens, UniProt P29317)", "sequence (P29317 whole entry)": "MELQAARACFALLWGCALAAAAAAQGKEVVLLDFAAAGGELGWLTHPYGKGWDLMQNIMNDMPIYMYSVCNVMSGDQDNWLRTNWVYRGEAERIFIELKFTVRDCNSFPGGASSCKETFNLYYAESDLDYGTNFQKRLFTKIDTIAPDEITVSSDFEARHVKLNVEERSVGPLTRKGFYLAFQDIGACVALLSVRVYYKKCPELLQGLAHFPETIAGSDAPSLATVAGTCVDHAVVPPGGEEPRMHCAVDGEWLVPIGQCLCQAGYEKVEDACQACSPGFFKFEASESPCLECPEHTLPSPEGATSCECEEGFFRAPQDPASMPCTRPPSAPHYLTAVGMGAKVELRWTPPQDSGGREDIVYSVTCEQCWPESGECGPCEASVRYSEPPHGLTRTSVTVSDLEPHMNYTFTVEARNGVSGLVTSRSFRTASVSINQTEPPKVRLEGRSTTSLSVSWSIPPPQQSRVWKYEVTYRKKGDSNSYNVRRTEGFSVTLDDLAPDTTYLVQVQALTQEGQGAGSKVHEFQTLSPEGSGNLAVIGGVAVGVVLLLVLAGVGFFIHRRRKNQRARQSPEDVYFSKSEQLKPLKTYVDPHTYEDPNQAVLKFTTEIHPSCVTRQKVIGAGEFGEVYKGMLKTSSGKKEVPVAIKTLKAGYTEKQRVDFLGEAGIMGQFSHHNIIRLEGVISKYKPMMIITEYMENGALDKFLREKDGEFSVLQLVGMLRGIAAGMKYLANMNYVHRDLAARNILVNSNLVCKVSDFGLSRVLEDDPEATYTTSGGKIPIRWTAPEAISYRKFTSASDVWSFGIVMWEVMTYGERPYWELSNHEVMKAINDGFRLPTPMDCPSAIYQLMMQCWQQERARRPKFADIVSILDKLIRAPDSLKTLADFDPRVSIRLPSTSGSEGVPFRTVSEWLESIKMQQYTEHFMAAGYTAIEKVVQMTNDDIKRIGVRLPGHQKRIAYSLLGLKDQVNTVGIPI", "description": "as §1"}, "IRAK1": {"biological_target": "IRAK1 (Homo sapiens, UniProt P51617)", "description": "as §1"}, "IGF1R": {"biological_target": "IGF1R (Homo sapiens, UniProt P08069)", "sequence (P08069 whole entry)": "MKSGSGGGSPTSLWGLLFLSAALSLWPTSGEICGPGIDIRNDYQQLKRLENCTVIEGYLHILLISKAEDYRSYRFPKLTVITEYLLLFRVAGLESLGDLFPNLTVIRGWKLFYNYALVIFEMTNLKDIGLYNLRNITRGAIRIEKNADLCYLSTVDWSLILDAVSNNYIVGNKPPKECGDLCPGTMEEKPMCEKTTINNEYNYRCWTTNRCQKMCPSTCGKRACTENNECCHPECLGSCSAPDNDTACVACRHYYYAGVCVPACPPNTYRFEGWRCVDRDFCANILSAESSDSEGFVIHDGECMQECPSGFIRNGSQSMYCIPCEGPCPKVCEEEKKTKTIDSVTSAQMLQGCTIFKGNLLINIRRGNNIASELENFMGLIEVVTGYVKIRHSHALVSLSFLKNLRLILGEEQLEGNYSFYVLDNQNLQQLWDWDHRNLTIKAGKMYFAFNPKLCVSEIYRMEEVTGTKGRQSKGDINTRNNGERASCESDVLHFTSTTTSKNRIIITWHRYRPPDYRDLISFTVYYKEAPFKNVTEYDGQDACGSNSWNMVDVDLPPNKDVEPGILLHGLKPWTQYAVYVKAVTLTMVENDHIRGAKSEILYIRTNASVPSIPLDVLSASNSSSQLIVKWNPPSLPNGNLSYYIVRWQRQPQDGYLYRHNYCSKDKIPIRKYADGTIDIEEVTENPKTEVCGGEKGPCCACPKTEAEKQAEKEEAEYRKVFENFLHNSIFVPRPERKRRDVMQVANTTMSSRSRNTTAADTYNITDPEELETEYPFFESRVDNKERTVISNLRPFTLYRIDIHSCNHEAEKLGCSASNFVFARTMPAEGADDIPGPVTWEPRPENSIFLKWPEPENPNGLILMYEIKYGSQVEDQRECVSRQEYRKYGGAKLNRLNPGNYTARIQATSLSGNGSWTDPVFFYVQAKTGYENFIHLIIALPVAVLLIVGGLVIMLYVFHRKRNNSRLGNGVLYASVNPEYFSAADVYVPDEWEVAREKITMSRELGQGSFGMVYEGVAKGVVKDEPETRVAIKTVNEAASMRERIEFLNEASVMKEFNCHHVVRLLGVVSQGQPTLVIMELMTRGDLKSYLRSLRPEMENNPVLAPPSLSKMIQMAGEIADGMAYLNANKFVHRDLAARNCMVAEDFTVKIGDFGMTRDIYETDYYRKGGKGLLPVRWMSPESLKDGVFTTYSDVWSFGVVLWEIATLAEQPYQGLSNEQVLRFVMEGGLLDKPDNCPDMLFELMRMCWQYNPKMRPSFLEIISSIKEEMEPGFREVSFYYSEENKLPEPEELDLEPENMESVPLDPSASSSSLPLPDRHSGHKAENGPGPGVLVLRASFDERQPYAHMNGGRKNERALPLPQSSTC", "description": "as §1"}, "RSK1": {"biological_target": "T4, RSK1 (Homo sapiens, UniProt Q15418)", "T4 construct": "gene RPS6KA1", "description": "as §1"}, "DYRK1B": {"biological_target": "DYRK1B (Homo sapiens, UniProt Q9Y463)", "sequence (Q9Y463 whole entry)": "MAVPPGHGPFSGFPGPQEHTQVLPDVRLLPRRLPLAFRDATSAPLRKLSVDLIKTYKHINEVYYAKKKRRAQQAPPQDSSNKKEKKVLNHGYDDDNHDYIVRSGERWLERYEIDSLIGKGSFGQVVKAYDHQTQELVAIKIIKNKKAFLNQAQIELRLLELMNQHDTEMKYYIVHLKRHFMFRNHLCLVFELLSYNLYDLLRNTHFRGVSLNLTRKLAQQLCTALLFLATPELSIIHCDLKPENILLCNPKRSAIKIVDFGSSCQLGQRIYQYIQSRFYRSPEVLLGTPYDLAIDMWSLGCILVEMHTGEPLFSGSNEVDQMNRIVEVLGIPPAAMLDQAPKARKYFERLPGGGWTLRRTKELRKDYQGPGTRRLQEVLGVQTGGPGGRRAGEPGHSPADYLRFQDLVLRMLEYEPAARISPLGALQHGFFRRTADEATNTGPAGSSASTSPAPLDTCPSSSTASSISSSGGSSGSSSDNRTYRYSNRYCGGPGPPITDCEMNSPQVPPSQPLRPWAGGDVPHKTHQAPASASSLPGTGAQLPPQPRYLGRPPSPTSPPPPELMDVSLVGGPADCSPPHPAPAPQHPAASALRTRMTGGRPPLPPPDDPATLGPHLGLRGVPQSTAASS", "description": "as §1"}, "PAK2": {"biological_target": "PAK2 (Homo sapiens, UniProt Q13177)", "description": "as §1"}}}
{"smiles": "Nc1cn2cc(-c3cnc4c(c3)N(C(=O)OC3CCCCC3)CCO4)ccc2n1", "note": "[Zharp1-163]", "values": [{"measurement": "inhibition at 1 µM", "setting": "Erk7; replicate Data1", "result": 5.82, "unit": "%"}, {"measurement": "inhibition at 1 µM", "setting": "Erk7; replicate Data2", "result": 0.29, "unit": "%"}, {"measurement": "inhibition at 1 µM", "setting": "PEK; replicate Data1", "result": 1.73, "unit": "%"}, {"measurement": "inhibition at 1 µM", "setting": "PEK; replicate Data2", "result": 19.4, "unit": "%"}, {"measurement": "inhibition at 1 µM", "setting": "BMX; replicate Data1", "result": -3.03, "unit": "%"}, {"measurement": "inhibition at 1 µM", "setting": "BMX; replicate Data2", "result": 11.3, "unit": "%"}, {"measurement": "inhibition at 1 µM", "setting": "CDK5/p35NCK; replicate Data1", "result": 7.89, "unit": "%"}, {"measurement": "inhibition at 1 µM", "setting": "CDK5/p35NCK; replicate Data2", "result": 1.25, "unit": "%"}, {"measurement": "inhibition at 1 µM", "setting": "SYK; replicate Data1", "result": 5.12, "unit": "%"}, {"measurement": "inhibition at 1 µM", "setting": "SYK; replicate Data2", "result": 4.56, "unit": "%"}, {"measurement": "inhibition at 1 µM", "setting": "RIPK2; replicate Data1", "result": -0.35, "unit": "%"}, {"measurement": "inhibition at 1 µM", "setting": "RIPK2; replicate Data2", "result": -3.05, "unit": "%"}, {"measurement": "inhibition at 1 µM", "setting": "MARK4; replicate Data1", "result": 14.3, "unit": "%"}, {"measurement": "inhibition at 1 µM", "setting": "MARK4; replicate Data2", "result": 0.49, "unit": "%"}, {"measurement": "inhibition at 1 µM", "setting": "AXL; replicate Data1", "result": 10.9, "unit": "%"}, {"measurement": "inhibition at 1 µM", "setting": "AXL; replicate Data2", "result": 1.24, "unit": "%"}, {"measurement": "inhibition at 1 µM", "setting": "EPHA2; replicate Data1", "result": -8.55, "unit": "%"}, {"measurement": "inhibition at 1 µM", "setting": "EPHA2; replicate Data2", "result": -9.14, "unit": "%"}, {"measurement": "inhibition at 1 µM", "setting": "IRAK1; replicate Data1", "result": 1.3, "unit": "%"}, {"measurement": "inhibition at 1 µM", "setting": "IRAK1; replicate Data2", "result": -3.6, "unit": "%"}, {"measurement": "inhibition at 1 µM", "setting": "IGF1R; replicate Data1", "result": -8.23, "unit": "%"}, {"measurement": "inhibition at 1 µM", "setting": "IGF1R; replicate Data2", "result": -5.7, "unit": "%"}, {"measurement": "inhibition at 1 µM", "setting": "RSK1; replicate Data1", "result": 6.09, "unit": "%"}, {"measurement": "inhibition at 1 µM", "setting": "RSK1; replicate Data2", "result": 5.81, "unit": "%"}, {"measurement": "inhibition at 1 µM", "setting": "DYRK1B; replicate Data1", "result": 16.6, "unit": "%"}, {"measurement": "inhibition at 1 µM", "setting": "DYRK1B; replicate Data2", "result": 9.23, "unit": "%"}, {"measurement": "inhibition at 1 µM", "setting": "PAK2; replicate Data1", "result": -3.2, "unit": "%"}, {"measurement": "inhibition at 1 µM", "setting": "PAK2; replicate Data2", "result": -2.35, "unit": "%"}]}
